# Experimental data reported in PubChem BioAssay (NCI).
#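 Compound exposure: 48 hours, 5 concentrations, 96-well plates. GI50 is the concentration that inhibits growth by half. At the TGI there is no net growth.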
# Legend:
# Assay in all cases: DTP human tumour cell line panel, 48 h
# U251 CNS = system: U251 CNS
# UACC-62 melanoma = system: UACC-62 melanoma
# CCRF-CEM leukemia = system: CCRF-CEM leukemia
# NCI/ADR-RES ovarian = system: NCI/ADR-RES ovarian
# SNB-19 CNS = system: SNB-19 CNS
# HOP-92 NSCLC = system: HOP-92 NSCLC
# T-47D breast = system: T-47D breast
# SF-539 CNS = system: SF-539 CNS
# M14 melanoma = system: M14 melanoma
# HCT-15 colon = system: HCT-15 colon
# 786-0 renal = system: 786-0 renal
# PC-3 prostate = system: PC-3 prostate
# NCI-H226 lung = system: NCI-H226 lung
# SK-MEL-5 melanoma = system: SK-MEL-5 melanoma
# A549 NSCLC = system: A549 NSCLC
# BT-549 breast = system: BT-549 breast
# HCC-2998 colon = system: HCC-2998 colon
# HT29 colon = system: HT29 colon
# ACHN renal = system: ACHN renal
# MOLT-4 leukemia = system: MOLT-4 leukemia
# NCI-H23 lung = system: NCI-H23 lung
# SF-268 CNS = system: SF-268 CNS
# MDA-MB-435 = system: MDA-MB-435
# KM12 colon = system: KM12 colon
# OVCAR-3 ovarian = system: OVCAR-3 ovarian
# MDA-MB-231 breast = system: MDA-MB-231 breast
# DU-145 prostate = system: DU-145 prostate
# RXF 393 renal = system: RXF 393 renal
# HL-60(TB) leukemia = system: HL-60(TB) leukemia
# RPMI-8226 leukemia = system: RPMI-8226 leukemia
# K-562 leukemia = system: K-562 leukemia
# OVCAR-8 ovarian = system: OVCAR-8 ovarian
# A498 renal = system: A498 renal
# UACC-257 melanoma = system: UACC-257 melanoma
# NCI-H460 lung = system: NCI-H460 lung
# MALME-3M melanoma = system: MALME-3M melanoma
# COLO 205 colon = system: COLO 205 colon
# SNB-75 CNS = system: SNB-75 CNS
# TK-10 renal = system: TK-10 renal
# IGROV1 ovarian = system: IGROV1 ovarian
# SF-295 CNS = system: SF-295 CNS
# HS 578T breast = system: HS 578T breast
# SK-MEL-2 melanoma = system: SK-MEL-2 melanoma
# OVCAR-5 ovarian = system: OVCAR-5 ovarian
# SW-620 colon = system: SW-620 colon
# SK-OV-3 ovarian = system: SK-OV-3 ovarian
# OVCAR-4 ovarian = system: OVCAR-4 ovarian
# CAKI-1 renal = system: CAKI-1 renal
# SN12C renal = system: SN12C renal
# SR leukemia = system: SR leukemia
# NCI-H522 lung = system: NCI-H522 lung
# LOX IMVI melanoma = system: LOX IMVI melanoma
# HCT-116 colon = system: HCT-116 colon
# EKVX NSCLC = system: EKVX NSCLC
# MCF7 breast = system: MCF7 breast
# UO-31 renal = system: UO-31 renal
# SK-MEL-28 melanoma = system: SK-MEL-28 melanoma
# HOP-62 NSCLC = system: HOP-62 NSCLC
# MDA-N = system: MDA-N
structure (smiles),measurement,setting,value
CCN1/C(=C\c2cc[n+](CC)c3ccccc23)C=Cc2ccccc21,GI50,U251 CNS,119 nM
same,TGI,U251 CNS,12700 nM
same,GI50,UACC-62 melanoma,179 nM
same,TGI,UACC-62 melanoma,1270 nM
same,GI50,CCRF-CEM leukemia,85.9 nM
same,TGI,CCRF-CEM leukemia,13400 nM
same,GI50,NCI/ADR-RES ovarian,13800 nM
same,TGI,NCI/ADR-RES ovarian,46200 nM
same,GI50,SNB-19 CNS,163 nM
same,TGI,SNB-19 CNS,11700 nM
same,GI50,HOP-92 NSCLC,161 nM
same,TGI,HOP-92 NSCLC,937 nM
same,GI50,T-47D breast,40.3 nM
same,TGI,T-47D breast,1750 nM
same,GI50,SF-539 CNS,220 nM
same,TGI,SF-539 CNS,11000 nM
same,GI50,M14 melanoma,302 nM
same,TGI,M14 melanoma,2470 nM
same,GI50,HCT-15 colon,2840 nM
same,TGI,HCT-15 colon,13300 nM
same,GI50,786-0 renal,465 nM
same,TGI,786-0 renal,12000 nM
same,GI50,PC-3 prostate,117 nM
same,TGI,PC-3 prostate,1850 nM
same,GI50,NCI-H226 lung,301 nM
same,TGI,NCI-H226 lung,13100 nM
same,GI50,SK-MEL-5 melanoma,60.5 nM
same,TGI,SK-MEL-5 melanoma,215 nM
same,GI50,A549 NSCLC,215 nM
same,TGI,A549 NSCLC,18100 nM
same,GI50,BT-549 breast,81.1 nM
same,TGI,BT-549 breast,1500 nM
same,GI50,HCC-2998 colon,141 nM
same,TGI,HCC-2998 colon,2610 nM
same,GI50,HT29 colon,202 nM
same,TGI,HT29 colon,10800 nM
same,GI50,ACHN renal,1190 nM
same,TGI,ACHN renal,5880 nM
same,GI50,MOLT-4 leukemia,207 nM
same,TGI,MOLT-4 leukemia,4440 nM
same,GI50,NCI-H23 lung,87.1 nM
same,TGI,NCI-H23 lung,7560 nM
same,GI50,SF-268 CNS,291 nM
same,TGI,SF-268 CNS,13200 nM
same,GI50,MDA-MB-435,109 nM
same,TGI,MDA-MB-435,1160 nM
same,GI50,KM12 colon,104 nM
same,TGI,KM12 colon,1420 nM
same,GI50,OVCAR-3 ovarian,118 nM
same,TGI,OVCAR-3 ovarian,1080 nM
same,GI50,MDA-MB-231 breast,273 nM
same,TGI,MDA-MB-231 breast,10200 nM
same,GI50,DU-145 prostate,265 nM
same,TGI,DU-145 prostate,13400 nM
same,GI50,RXF 393 renal,333 nM
same,TGI,RXF 393 renal,4270 nM
same,GI50,HL-60(TB) leukemia,123 nM
same,TGI,HL-60(TB) leukemia,820 nM
same,GI50,RPMI-8226 leukemia,50.3 nM
same,TGI,RPMI-8226 leukemia,753 nM
same,GI50,K-562 leukemia,47.7 nM
same,TGI,K-562 leukemia,12800 nM
same,GI50,OVCAR-8 ovarian,230 nM
same,TGI,OVCAR-8 ovarian,13000 nM
same,GI50,A498 renal,187 nM
same,TGI,A498 renal,2780 nM
same,GI50,UACC-257 melanoma,135 nM
same,TGI,UACC-257 melanoma,2360 nM
same,GI50,NCI-H460 lung,193 nM
same,TGI,NCI-H460 lung,1090 nM
same,GI50,MALME-3M melanoma,138 nM
same,TGI,MALME-3M melanoma,857 nM
same,GI50,COLO 205 colon,102 nM
same,TGI,COLO 205 colon,320 nM
same,GI50,SNB-75 CNS,169 nM
same,TGI,SNB-75 CNS,871 nM
same,GI50,TK-10 renal,448 nM
same,TGI,TK-10 renal,13700 nM
same,GI50,IGROV1 ovarian,360 nM
same,TGI,IGROV1 ovarian,12800 nM
same,GI50,SF-295 CNS,223 nM
same,TGI,SF-295 CNS,2900 nM
same,GI50,HS 578T breast,330 nM
same,TGI,HS 578T breast,15800 nM
same,GI50,SK-MEL-2 melanoma,231 nM
same,TGI,SK-MEL-2 melanoma,10900 nM
same,GI50,OVCAR-5 ovarian,611 nM
same,TGI,OVCAR-5 ovarian,13800 nM
same,GI50,SW-620 colon,230 nM
same,TGI,SW-620 colon,7810 nM
same,GI50,SK-OV-3 ovarian,236 nM
same,TGI,SK-OV-3 ovarian,11400 nM
same,GI50,OVCAR-4 ovarian,55.9 nM
same,TGI,OVCAR-4 ovarian,12200 nM
same,GI50,CAKI-1 renal,4710 nM
same,TGI,CAKI-1 renal,22500 nM
same,GI50,SN12C renal,233 nM
same,TGI,SN12C renal,11900 nM
same,GI50,SR leukemia,152 nM
same,TGI,SR leukemia,4860 nM
same,GI50,NCI-H522 lung,197 nM
same,TGI,NCI-H522 lung,10300 nM
same,GI50,LOX IMVI melanoma,179 nM
same,TGI,LOX IMVI melanoma,1520 nM
same,GI50,HCT-116 colon,124 nM
same,TGI,HCT-116 colon,10300 nM
same,GI50,EKVX NSCLC,76.4 nM
same,TGI,EKVX NSCLC,12100 nM
same,GI50,MCF7 breast,114 nM
same,TGI,MCF7 breast,1850 nM
same,GI50,UO-31 renal,1890 nM
same,TGI,UO-31 renal,8100 nM
same,GI50,SK-MEL-28 melanoma,275 nM
same,TGI,SK-MEL-28 melanoma,2330 nM
CC(C)(C)OC(=O)N[C@H]1CCN(C2CCCCC2)C1=O,TGI,U251 CNS,> 100000 nM
same,TGI,UACC-62 melanoma,> 100000 nM
same,TGI,CCRF-CEM leukemia,> 100000 nM
same,TGI,NCI/ADR-RES ovarian,> 100000 nM
same,TGI,SNB-19 CNS,> 100000 nM
same,TGI,HOP-92 NSCLC,> 100000 nM
same,TGI,SF-539 CNS,> 100000 nM
same,TGI,M14 melanoma,> 100000 nM
same,TGI,HOP-62 NSCLC,> 100000 nM
same,TGI,HCT-15 colon,> 100000 nM
same,TGI,786-0 renal,> 100000 nM
same,TGI,PC-3 prostate,> 100000 nM
same,TGI,NCI-H226 lung,> 100000 nM
same,TGI,SK-MEL-5 melanoma,> 100000 nM
same,TGI,A549 NSCLC,> 100000 nM
same,TGI,HCC-2998 colon,> 100000 nM
same,TGI,ACHN renal,> 100000 nM
same,TGI,MOLT-4 leukemia,> 100000 nM
same,TGI,NCI-H23 lung,> 100000 nM
same,TGI,SF-268 CNS,> 100000 nM
same,TGI,MDA-MB-435,> 100000 nM
same,TGI,MDA-MB-231 breast,> 100000 nM
same,TGI,DU-145 prostate,> 100000 nM
same,TGI,HL-60(TB) leukemia,> 100000 nM
same,TGI,RPMI-8226 leukemia,> 100000 nM
same,TGI,K-562 leukemia,> 100000 nM
same,TGI,OVCAR-8 ovarian,> 100000 nM
same,TGI,A498 renal,> 100000 nM
same,TGI,NCI-H460 lung,> 100000 nM
same,TGI,COLO 205 colon,> 100000 nM
same,TGI,SNB-75 CNS,> 100000 nM
same,TGI,TK-10 renal,> 100000 nM
same,TGI,IGROV1 ovarian,> 100000 nM
same,TGI,HS 578T breast,> 100000 nM
same,TGI,SK-MEL-2 melanoma,> 100000 nM
same,TGI,OVCAR-5 ovarian,> 100000 nM
same,TGI,SW-620 colon,> 100000 nM
same,TGI,SK-OV-3 ovarian,> 100000 nM
same,TGI,SN12C renal,> 100000 nM
same,TGI,LOX IMVI melanoma,> 100000 nM
same,TGI,HCT-116 colon,> 100000 nM
same,TGI,EKVX NSCLC,> 100000 nM
same,TGI,MCF7 breast,> 100000 nM
same,TGI,MDA-N,> 100000 nM
same,TGI,UO-31 renal,> 100000 nM
same,TGI,SK-MEL-28 melanoma,> 100000 nM
